Values after ≈ are worked out from the molar mass of the structure shown. Values joined by “and” are separate entries in the source; they are usually repeats but may differ in a detail not shown here. Equal values may be shown once. Starred links: 1 amine or outer side, 2 acyl side, 3 side chain; linkers in the order of their positions; H or OH if unused. Positions of bridges follow the written chain, without caps; N, C: chain ends. Non-standard residues stand in square brackets, D forms with d. Residues, ends and D or L forms follow the SMILES beside them. *: point of attachment. pTerphenylCO(4''-OnC5H11) = CCCCCOc1ccc(-c2ccc(-c3ccc(C(=O)*)cc3)cc2)cc1; Orn(4R-OH,5R-OH) = O=C([C@H](C[C@@H](O)[C@@H](O)N[*:3])N[*:1])[*:2]; hTyr(3S-OH,4S-OH) = N[C@H](C(=O)O)[C@H](O)[C@@H](O)c1ccc(O)cc1; Pro(3S-OH,4S-Me) = C[C@H]1CN[C@H](C(=O)O)[C@H]1O; Hyp = O=C(O)[C@@H]1C[C@@H](O)CN1

By MIC is commonly meant the lowest concentration found to suppress growth. High values mean a less susceptible organism, low ones a more susceptible organism.

The subject of experiment [1] is A. fumigatus AF293. Kind of experiment: Murine model of pulmonary aspergillosis (Example 19), terminal lung burden. It is filed as in vivo, Aspergillus fumigatus. The procedure: A secondary endpoint for the study was terminal lung tissue burden. Immediately following confirmation of death, carcasses were frozen at −20° C. prior to tissue dissection and processing. The frozen carcasses were thawed at room temperature, the lungs removed and placed into pre-weighed bead-beating tubes containing 2 mL of PBS and subjected to mechanical disruption. Organ homogenates were diluted further in PBS and quantitatively cultured for A. fumigatus onto SABC and incubated at 30° C. for 24-48 hours.
2. Lung tissue burden data were analysed using the non-parametric Kruskal-Wallis test and if this was statistically significant all pairwise comparisons were analyzed (Conover-Inman).

Experiment [2] has as its system A. fumigatus AF293. Kind of experiment: Pulmonary aspergillosis, prophylaxis, neutropenic ICR mice (Examples 17, 18), survival. In kind it is in vivo, Aspergillus fumigatus. On the procedure:
Intranasal infection with A. fumigatus AF293 (10^5 CFU/mouse) on Day 0. Prophylaxis CD101 as a single dose (IP; 5, 10, 20 mg/kg) or posaconazole (PO; 2 and 10 mg/kg) 1 day prior to infection. Survival monitored for 10 days.
Intranasal challenge with A. fumigatus AF293 (10^5 CFU/mouse) was initiated on Day 0 and prophylaxis with CD101 as a single dose (IP; 5, 10, 20 mg/kg) or posaconazole (PO; 2 and 10 mg/kg) was started 1 day prior to infection. Survival was monitored for 10 days.

For experiment [3], the system named is A. fumigatus AF293. Description: Murine model of pulmonary aspergillosis (Example 19), survival. The settings on record: for Mean Survival / Median Survival: Day 1 pre-infection.
The subject of experiment [4] is Aspergillus fumigatus (ATCC 13073). Description: Prophylaxis, neutropenic ICR mouse disseminated aspergillosis model, survival. Conditions: amphotericin B at 3 mg/kg IP administered one hour after infection.
The test system is the same in experiment [5]. Kind of experiment: Neutropenic mouse aspergillosis model, survival. The settings on record: AmB 2 mg/kg IP one dose; 10 days. It is filed as in vivo.
For the next experiment, the system named is C. auris. Description: Murine model of disseminated candidiasis, C. auris infection, kidney CFU and survival. In kind it is in vivo, Candida auris. The settings on record: amphotericin B 0.3 mg/kg IP, 2 doses; Day 14.
In the next experiment the test system is C. glabrata. Kind of experiment: In vitro susceptibility testing (CLSI M27-A3), C. glabrata. The settings on record: Nakaseomyces glabratus, 24 h. It is filed as cell-based, Candida glabrata. On the procedure: (§1) Ten clinical Candida strains were used for the in vivo treatment studies, including four C. albicans, three C. glabrata, and three C. parapsilosis strains (Table 15). This group was selected to encompass phenotypic variability in susceptibility to triazoles and echinocandins and based on similar fitness in the animal model as defined by the amount of growth in control animals over 24 h. The organisms were maintained, grown, and quantified on Sabouraud's dextrose agar (SDA) plates.
(§2) In vitro susceptibility testing. All isolates were tested in accordance with the standards in CLSI document M27-A3. The MICs were determined visually after 24 h of incubation as the lowest concentration of drug that causes a significant diminution (50%) of growth compared to controls. MICs were determined on three separate occasions in duplicate.

For the next experiment, the system named is C. parapsilosis. Kind of experiment: In vitro susceptibility testing (CLSI M27-A3), C. parapsilosis. In kind it is cell-based, Candida parapsilosis. The settings on record: Lodderomyces parapsilosis, 24 h. The procedure:
as §1, §2

In another experiment the test system is C. albicans. Kind of experiment: In vitro susceptibility testing (CLSI M27-A3), C. albicans. In kind it is cell-based. Conditions: Candida albicans, 24 h. The procedure:
as §1, §2

Setting [6] is: Posaconazole 10 mg/kg PO Day −1.
Where [7] appears, read: Vehicle vs. Posaconazole 10 mg/kg.

With `CC[C@@H]([C@H](C)O)n1ncn(-c2ccc(N3CCN(c4ccc(OC[C@@H]5CO[C@@](Cn6cncn6)(c6ccc(F)cc6F)C5)cc4)CC3)cc2)c1=O` [Posaconazole, posaconazole], in the experiment with A. fumigatus AF293 [1] (Posaconazole 2 mg/kg PO Day −1), the “Group Geometric mean (lung burden)” value is 1.14 × 10^4 CFU/g, the “Log10 Group Geometric mean (lung burden)” value amounted to 4.06 CFU/g and the “Log10 reduction from vehicle control” value amounted to 0.11 CFU/g. In addition, in the experiment with A. fumigatus AF293 [1] (setting [6]), the “Group Geometric mean (lung burden)” value is given as 2.75 × 10^3 CFU/g, the “Log10 Group Geometric mean (lung burden)” value is given as 3.44 CFU/g and the “Log10 reduction from vehicle control” value turned out to be 0.73 CFU/g. Besides, the survival result with A. fumigatus AF293 [2] (posaconazole 2 mg/kg PO 1 day prior to infection) is given as “no survivors”. The “survival rate relative to control” value in the experiment on A. fumigatus AF293 [2] (posaconazole 10 mg/kg PO 1 day prior to infection) is “statistically-significant increase in survival rate relative to control”. Also, in the experiment with A. fumigatus AF293 [3] (Posaconazole 2 mg/kg PO once), the “survival time post infection, range” value lay in the range of 69 to 114 h; the “Mean Survival” value is 77.5 h; the “Median Survival” value amounted to 69.0 h. Moreover, in the experiment with A. fumigatus AF293 [3] (Posaconazole 10 mg/kg PO once), the “survival time post infection, range” value was in the range of 69 to 240 h; the “Mean Survival” value was 212 h and 211.5 h; the “Median Survival” value was “cannot estimate”. The “mice surviving to the end of the study” value in the experiment with A. fumigatus AF293 [3] (Posaconazole 10 mg/kg PO, 6/treatment group, 10 days) came out at 5. Further, in the experiment on A. fumigatus AF293 [3] (Vehicle vs. Posaconazole 2 mg/kg), the “Wilcoxon (Peto-Prentice) test, survival” value is given as “P = 0.0391”. In the experiment with A. fumigatus AF293 [3] (setting [7]), the “Log-Rank test, survival” value was “P = 0.0182” and the “Wilcoxon (Peto-Prentice) test, survival” value was “P = 0.0441”. The “survival compared to the vehicle mice” value in the experiment on A. fumigatus AF293 [3] (posaconazole 2 mg/kg once one day pre-infection) is reported as “did not show any improvement in survival”. Moreover, the “mice surviving to the end of the study” value with A. fumigatus AF293 [3] (posaconazole 10 mg/kg once 1 day pre-infection) is listed as over 80%.

With `C[C@@H]1[C@H](O)[C@@H](C)/C=C/C=C/C=C/C=C/C=C/C=C/C=C/[C@H](O[C@@H]2O[C@H](C)[C@@H](O)[C@H](N)[C@@H]2O)C[C@@H]2O[C@](O)(C[C@@H](O)C[C@@H](O)[C@H](O)CC[C@@H](O)C[C@@H](O)CC(=O)O[C@H]1C)C[C@H](O)[C@H]2C(=O)O` [AmB, amphotericin B, reference compound], in experiment [4], the 14-day survival result is given as “significant increase in the 14-day survival”. The survival vs vehicle entry in [5] was “significantly longer survival than vehicle”. Further, the “percent survival at the end of the study” value in the experiment on C. auris came to 30%.

With `CCCCCOc1ccc(-c2ccc(-c3ccc(C(=O)N[C@H]4C[C@@H](O)[C@@H](O)NC(=O)[C@@H]5[C@@H](O)[C@@H](C)CN5C(=O)[C@H]([C@@H](C)O)NC(=O)[C@H]([C@H](O)[C@@H](O)c5ccc(O)cc5)NC(=O)[C@@H]5C[C@@H](O)CN5C(=O)[C@H]([C@@H](C)O)NC4=O)cc3)cc2)cc1` [Anidulafungin, anidulafungin, reference compound] ({pTerphenylCO(4''-OnC5H11)}-[Orn(4R-OH,5R-OH)]T[Hyp][hTyr(3S-OH,4S-OH)]T[Pro(3S-OH,4S-Me)]; lactam 1-C), the MIC in the experiment on C. glabrata (C. glabrata 5592) stood at 0.06 µg/mL (≈ 0.0526 µM); with C. glabrata (C. glabrata 10956), 1 µg/mL (≈ 0.877 µM); in the experiment with C. glabrata (C. glabrata 35315), 0.25 µg/mL (≈ 0.219 µM); with C. parapsilosis (C. parapsilosis 20423.072), 1 µg/mL (≈ 0.877 µM); against C. parapsilosis (C. parapsilosis 20477.048) it was 2 µg/mL (≈ 1.75 µM); against C. parapsilosis (C. parapsilosis 20519.069), 4 µg/mL (≈ 3.51 µM). Also, the MIC against C. albicans (C. albicans 98-17) stood at 0.03 µg/mL (≈ 0.0263 µM); in the experiment on C. albicans (C. albicans 98-210), 0.015 µg/mL (≈ 0.0132 µM); in the experiment on C. albicans (C. albicans 580) it was 0.015 µg/mL (≈ 0.0132 µM); against C. albicans (C. albicans K-1, 50% growth diminution) it was 0.015 µg/mL (≈ 0.0132 µM).

The values above are taken from patent publication US20190307843A1, “SINGLE DOSE METHODS FOR PREVENTING AND TREATING FUNGAL INFECTIONS” (Cidara Therapeutics, Inc., priority 2016, published 2019).
